Drawing on patent US20100240711A1, “SOLID PREPARATION COMPRISING NPYY5 RECEPTOR ANTAGONIST” (SHIONOGI & CO., LTD., priority 2007, published 2010), this text covers solubility for 1 molecule.

Structures are written as SMILES. Values after ≈ are worked out from the molar mass of the structure shown.

A short description of the data set: Solubility of S-2367 in water (Japanese Pharmacopoeia, Dissolution Test, Second Solution). It counts as physicochemical. To be noted: 37 °C, pH 6.8, aqueous buffer. The text has this:
A particularly preferable compound is trans-N-(5-trifluoromethylpyridin-2-yl)-4-(tertiarybutylsulfonylamino)cyclohexanecarboxamide (S-2367). The compound is a crystal under a room temperature.
The NPYY5 receptor antagonist of the present invention is not particularly limited as far as it is a drug which can be orally administered, but is preferably a drug having low solubility in water, so-called poorly water-soluble drug.

One may read the solubility as how much of the substance goes into solution per volume. The low end stands for a poorly soluble substance, the high end for a readily soluble substance.

Consider `CC(C)(C)S(=O)(=O)N[C@H]1CC[C@H](C(=O)Nc2ccc(C(F)(F)F)cn2)CC1` [Example S-2367, trans-N-(5-trifluoromethylpyridin-2-yl)-4-(tertiarybutylsulfonylamino)cyclohexanecarboxamide], for which the solubility is approximately 3.5 µg/mL (≈ 8.59 µM).
